Source: patent publication US7786108B2, “Compounds and method for treating dyslipidemia” (Eli Lilly and Company, priority 2004, dated 2010)
Counter-ions that a name gives are not always drawn.

Tested on: transgenic mice that express both human CETP and human apolipoprotein A-1
Test: In vivo assay of plasma lipids: elevation of HDL cholesterol
Details: Mus musculus; single oral dose 30 mg/kg; HDL cholesterol in serum at 8 hr after administration; relative to a control; read-out: % HDL cholesterol increase
Source text: Additional serum lipids can be analyzed by enzymatic methods.

SMILES | change in vivo at 30 mg/kg
Cc1cc2c(cc1C(F)(F)F)N(C1CCC(C(=O)O)CC1)CCC[C@@H]2N(Cc1cc(C(F)(F)F)cc(C(F)(F)F)c1)c1nnn(C)n1 (stereo partly drawn) [Example 175, (S)-4-{5-[(3,5-Bis-trifluoromethyl-benzyl)-(2-methyl-2H-tetrazol-5-yl)-amino]-7-methyl-8-trifluoromethyl-2,3,4,5-tetrahydro-benzo[b]azepin-1-yl}-cyclohexanecarboxylic acid] | 100%
Cc1cc2c(c(C)c1C(F)(F)F)N(C[C@H]1CC[C@H](CC(=O)O)CC1)CCC[C@@H]2N(Cc1cc(C(F)(F)F)cc(C(F)(F)F)c1)c1nnn(C)n1 [Example 153, (S)-(4-{5-[(3,5-Bis-trifluoromethyl-benzyl)-(2-methyl-2H-tetrazol-5-yl)-amino]-7,9-dimethyl-8-trifluoromethyl-2,3,4,5-tetrahydro-benzo[b]azepin-1-ylmethyl}-cyclohexyl)-acetic acid] | 165%
Cc1cc2c(cc1C(F)(F)F)N(Cc1cncc(C(=O)O)c1)CCC[C@@H]2N(Cc1cc(C(F)(F)F)cc(C(F)(F)F)c1)c1nnn(C)n1 [Example 142, (S)-5-{5-[(3,5-Bis-trifluoromethyl-benzyl)-(2-methyl-2H-tetrazol-5-yl)-amino]-7-methyl-8-trifluoromethyl-2,3,4,5-tetrahydro-benzo[b]azepin-1-ylmethyl}-nicotinic acid hydrochloride] | 90%
Cc1c2c(cc3c1N(C[C@H]1CC[C@H](CC(=O)O)CC1)CCC[C@@H]3N(Cc1cc(C(F)(F)F)cc(C(F)(F)F)c1)c1nnn(C)n1)COC2 [Example 165, (S)-(4-{9-[(3,5-Bis-trifluoromethyl-benzyl)-(2-methyl-2H-tetrazol-5-yl)-amino]-4-methyl-1,3,6,7,8,9-hexahydro-2-oxa-5-aza-cyclohepta[f]inden-5-ylmethyl}-cyclohexyl)-acetic acid] | 177%
Cc1cc2c(cc1C(F)(F)F)N(CCO)CCC[C@@H]2N(Cc1cc(C(F)(F)F)cc(C(F)(F)F)c1)c1nnn(C)n1 [Example 33, (S)-2-{5-[(3,5-Bis-trifluoromethyl-benzyl)-(2-methyl-2H-tetrazol-5-yl)-amino]-7-methyl-8-trifluoromethyl-2,3,4,5-tetrahydro-benzo[b]azepin-1-yl}-ethanol] | 354%
CCN1CCC[C@H](N(Cc2cc(C(F)(F)F)cc(C(F)(F)F)c2)c2nnn(C)n2)c2cc(C)c(C(F)(F)F)cc21 [Example 30, (S)-(3,5-Bis-trifluoromethyl-benzyl)-(1-ethyl-7-methyl-8-trifluoromethyl-2,3,4,5-tetrahydro-1H-benzo[b]azepin-5-yl)-(2-methyl-2H-tetrazol-5-yl)-amine] | 54%
Cc1cc2c(c(C)c1C(F)(F)F)N(CC1CC1)CCC[C@@H]2N(Cc1cc(C(F)(F)F)cc(C(F)(F)F)c1)c1nnn(C)n1 [Example 148, (S)-(3,5-Bis-trifluoromethyl-benzyl)-(1-cyclopropylmethyl-7,9-dimethyl-8-trifluoromethyl-2,3,4,5-tetrahydro-1H-benzo[b]azepin-5-yl)-(2-methyl-2H-tetrazol-5-yl)-amine] | 224%
Cc1cc2c(cc1C(F)(F)F)N(Cc1ccncc1)CCC[C@@H]2N(Cc1cc(Cl)cc(Cl)c1)c1nnn(C)n1 [Example 187, (S)-(3,5-Dichloro-benzyl)-(7-methyl-1-pyridin-4-ylmethyl-8-trifluoromethyl-2,3,4,5-tetrahydro-1H-benzo[b]azepin-5-yl)-(2-methyl-2H-tetrazol-5-yl)-amine] | 124%
Cc1cc2c(cc1C(F)(F)F)N(Cc1ccncc1)CCC[C@@H]2N(Cc1cc(Cl)cc(C(F)(F)F)c1)c1nnn(C)n1 [Example 191, (S)-(3-Chloro-5-trifluoromethyl-benzyl)-(7-methyl-1-pyridin-4-ylmethyl-8-trifluoromethyl-2,3,4,5-tetrahydro-1H-benzo[b]azepin-5-yl)-(2-methyl-2H-tetrazol-5-yl)-amine] | 91%
Cc1cc2c(cc1C(F)(F)F)N(Cc1ccc(C#N)cc1)CCC[C@@H]2N(Cc1cc(C(F)(F)F)cc(C(F)(F)F)c1)c1nnn(C)n1 [Example 192, (S)-4-{5-[(3,5-bis-trifluoromethyl-benzyl)-(2-methyl-2H-tetrazol-5-yl)-amino]-7-methyl-8-trifluoromethyl-2,3,4,5-tetrahydro-benzo[b]azepin-1-ylmethyl}-benzonitrile] | 102%
Cc1c2c(cc3c1N(CC1CCCC1)CCC[C@@H]3N(Cc1cc(C(F)(F)F)cc(C(F)(F)F)c1)c1nnn(C)n1)COC2 [Example 170, (S)-(3,5-Bis-trifluoromethyl-benzyl)-(5-cyclopentylmethyl-4-methyl-3,5,6,7,8,9-hexahydro-1H-2-oxa-5-aza-cyclohepta[f]inden-9-yl)-(2-methyl-2H-tetrazol-5-yl)-amine] | 95%
Cn1nnc(N(Cc2cc(C(F)(F)F)cc(C(F)(F)F)c2)[C@H]2CCCN(CC3CCCC3)c3cc4c(cc32)OC(F)(F)O4)n1 [Example 178, (S)-(3,5-Bis-trifluoromethyl-benzyl)-(5-cyclopentylmethyl-2,2-difluoro-6,7,8,9-tetrahydro-5H-1,3-dioxa-5-aza-cyclohepta[f]inden-9-yl)-(2-methyl-2H-tetrazol-5-yl)-amine] | 128%
Cc1cc2c(cc1C(F)(F)F)N(C(=O)OC(C)C)CCC[C@@H]2N(Cc1cc(C(F)(F)F)cc(C(F)(F)F)c1)c1nnn(C)n1 [Example 16, (S)-5-[(3,5-Bis-trifluoromethyl-benzyl)-(2-methyl-2H-tetrazol-5-yl)-amino]-7-methyl-8-trifluoromethyl-2,3,4,5-tetrahydro-benzo[b]azepine-1-carboxylic acid isopropyl ester] | 82%
Cc1cc2c(c(C)c1C(F)(F)F)N(Cc1ccncc1)CCC[C@@H]2N(Cc1cc(C(F)(F)F)cc(C(F)(F)F)c1)c1nnn(C)n1 [Example 151, (S)-(3,5-Bis-trifluoromethyl-benzyl)-(7,9-dimethyl-1-pyridin-4-ylmethyl-8-trifluoromethyl-2,3,4,5-tetrahydro-1H-benzo[b]azepin-5-yl)-(2-methyl-2H-tetrazol-5-yl)-amine] | 165%
Cc1cc2c(cc1C(F)(F)F)N(CC1CCCC1)CCC[C@@H]2N(Cc1cc(C(F)(F)F)cc(C(F)(F)F)c1)c1nnn(CCO)n1 [Example 27, (S)-2-{5-[(3,5-Bis-trifluoromethyl-benzyl)-(1-cyclopentylmethyl-7-methyl-8-trifluoromethyl-2,3,4,5-tetrahydro-1H-benzo[b]azepin-5-yl)-amino]-tetrazol-2-yl}-ethanol] | 128%
Cn1nnc(N(Cc2cc(C(F)(F)F)cc(C(F)(F)F)c2)[C@H]2CCCN(CC3CCCC3)c3cc4c(cc32)CCCC4)n1 [Example 77, (3,5-Bis-trifluoromethyl-benzyl)-(1-cyclopentylmethyl-2,3,4,5,7,8,9,10-octahydro-1H-naphtho[2,3-b]azepin-5-yl)-(2-methyl-2H-tetrazol-5-yl)-amine] | 229%
Cc1cc2c(cc1C(F)(F)F)N(CCC(C)(C)CC(=O)O)CCC[C@@H]2N(Cc1cc(C(F)(F)F)cc(C(F)(F)F)c1)c1nnn(C)n1 [Example 32, (S)-5-{5-[(3,5-Bis-trifluoromethyl-benzyl)-(2-methyl-2H-tetrazol-5-yl)-amino]-7-methyl-8-trifluoromethyl-2,3,4,5-tetrahydro-benzo[b]azepin-1-yl}-3,3-dimethyl-pentanoic acid] | 128%
